In US9896476B1, “Glycyrrhetic acid derivatives” (KING SAUD UNIVERSITY, priority 2017, dated 2018):
Where “and” joins values, the source holds several entries; their conditions need not be identical. Equal values may be shown once.

Columns and labels:
Human COX-2 = target: T1, Human COX-2 (Homo sapiens, UniProt P35354); experiment: Human COX-2 enzymatic assay; format: biochemical; details: for IC50: 5 min pre-incubation, 45 min incubation with [14C]-arachidonic acid at 24° C.; for Approximate selectivity ratio COX-1/COX-2: ratio of COX-1 IC50 to COX-2 IC50
T1 sequence (P35354 18-604): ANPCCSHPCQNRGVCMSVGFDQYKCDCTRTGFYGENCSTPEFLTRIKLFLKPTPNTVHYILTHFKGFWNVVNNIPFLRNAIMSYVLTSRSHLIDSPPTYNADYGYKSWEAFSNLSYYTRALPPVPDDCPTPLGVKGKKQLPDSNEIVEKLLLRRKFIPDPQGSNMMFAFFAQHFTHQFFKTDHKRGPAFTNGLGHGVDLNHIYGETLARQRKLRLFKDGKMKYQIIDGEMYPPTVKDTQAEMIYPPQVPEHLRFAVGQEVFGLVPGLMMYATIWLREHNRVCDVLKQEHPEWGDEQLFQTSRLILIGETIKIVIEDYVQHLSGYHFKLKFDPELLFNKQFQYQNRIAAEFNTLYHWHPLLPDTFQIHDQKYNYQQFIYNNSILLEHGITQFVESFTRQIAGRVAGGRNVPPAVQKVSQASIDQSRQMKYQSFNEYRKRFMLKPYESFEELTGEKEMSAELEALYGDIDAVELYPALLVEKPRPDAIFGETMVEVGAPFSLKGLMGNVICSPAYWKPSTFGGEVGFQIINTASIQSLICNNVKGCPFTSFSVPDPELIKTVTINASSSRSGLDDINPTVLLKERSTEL
Experimental: (§1) Human COX-1 and COX-2 activities were determined as described by Wakitani et al. 0.2 ml of 100 mmol Tris HCl buffer (pH 8) containing hematin (2 mmol) and tryptophan (5 mmol) as cofactors. The reaction mixture was pre-incubated with each test compound individually for 5 min at 24° C. [14C]-arachidonic acid (100.00 dpm, 30 mmol) was added to the mixture and then incubated for 2 min (for COX-1) or 45 min (for COX-2) at 24° C. The reaction was stopped by the addition of 400 μl of a solution composed of Et2O/MeOH/1 M citric acid (30:4:1, v/v/v). After centrifugation of the mixture at 1700×/g for 5 min at 4° C., 50 μl of the upper phase was applied to a thin layer chromatography plate. Thin layer chromatography was performed at 4° C. with solvent system of Et2O/MeOH/AcOH (90:2:0.1, v/v/v). Enzyme activity was calculated from the percent conversion of arachidonic acid to PGH2 and its de-composition products, using radiometric photographic system.

Acute toxicity in mice = details: mouse, in vivo; male mice; route for the LD50 not stated (oral and intraperitoneal tests described)
Experimental: […]. The animals were divided into groups of six mice each. The compounds were given orally, suspended in 1% gum acacia, in doses of 1, 10, 100, 200, 250, 300 mg/kg.
The mortality percentage in each group was recorded after 24 h.
Additionally, the test compounds were investigated for their parenteral acute toxicity in groups of six mice each as reported earlier. The compounds, or their vehicle propylene glycol (control), were given by intraperitoneal injection in doses of 10, 25, 50, 75, 100 mg/kg. The percentage survival was followed up to seven days.

pyloric ligation ulcer = experiment: Pyloric ligation ulcer model (antiulcer activity); format: in vivo, rat; details: rats, oral 30 min prior to pyloric ligation, 4 h, compounds 100 mg/kg, omeprazole 40 mg/kg; for Free acid / Total acid: gastric contents
Experimental: Pyloric ligation ulcer models were used to test each of compounds (2)-(4) for antiulcer activity. Male rats (140 and 175 g) were selected for pyloric ligation ulcer model experiments and divided into eleven groups consisting of six animals each. The rats were fasted overnight. One group received normal saline 2 ml/kg (negative control), the second group received omeprazole 40 mg/kg (positive control) and the other groups received each of the compounds (2)-(4) (100 mg/kg) by oral route 30 min prior to pyloric ligation. Animals were sacrificed 4 h later and their stomachs were opened to collect the gastric contents. The gastric contents were centrifuged at 1000 rpm for 10 min. One ml of the supernatant liquid was pipetted out and diluted to a total volume of 10 ml with distilled water. The solution was titrated against 0.01 N sodium hydroxide solution using Topfer's reagent to indicate the end point when the solution turned […]. The volume of NaOH consumed was taken as corresponding to the free acidity. Titration was further continued until the solution regained pink color. The volume of sodium hydroxide solution required to achieve the pink color was noted and total acidity calculated. After opening the stomach, the ulcer index was calculated.
The results are expressed as mean±SEM. The difference between groups was determined using the one way analysis of variance (ANOVA) followed by Dunnett's test. P<0.05 was considered significant.

[1] = system: carrageenan-induced rat paw edema; experiment: Carrageenan-induced rat paw edema; format: in vivo; details: for % Protection / Increase in paw edema (ml) ± SEM: 10 μmol/kg s.c. 1 h prior to carrageenan; for % Protection: 4 h, relative to DMSO control; for Increase in paw edema (ml) ± SEM: increase between 0 h and 4 h; for Activity relative to indomethacin: 10 μmol/kg s.c., indomethacin = 100
Experimental: Male albino rats weighing 120-150 g were used in these experiments. The rats were kept in an animal house under standard conditions of light and temperature with free access to food and water. The animals were randomly divided into groups of six rats each for each experimental and control group. The paw edema was induced by subplantar injection of […] of 2% carrageenan solution in saline (0.9%). […] A control group was injected with DMSO only. The volume of paw edema (ml) was determined by means of a plethysmometer immediately after carrageenan injection and 4 h later. The increase in paw volume between 0 h and 4 h after carrageenan injection was measured. The percentage protection against inflammation was calculated according to the following formula: % Protection=100%×(Vc−Vd)/Vc where Vc is the 4 h increase in paw volume in the control animals (control) and Vd is the 4 h increase in paw volume in the test animals. Data are expressed as the mean±SEM. Significant difference between the control and test groups was determined using Student's t-test and P values. The difference in results was considered significant when P<0.001.

Human COX-1 = Human COX-1 (Homo sapiens, UniProt P23219); experiment: Human COX-1 enzymatic assay; format: biochemical; details: 5 min pre-incubation, 2 min incubation with [14C]-arachidonic acid at 24° C.
Chain of Human COX-1 (P23219 24-599): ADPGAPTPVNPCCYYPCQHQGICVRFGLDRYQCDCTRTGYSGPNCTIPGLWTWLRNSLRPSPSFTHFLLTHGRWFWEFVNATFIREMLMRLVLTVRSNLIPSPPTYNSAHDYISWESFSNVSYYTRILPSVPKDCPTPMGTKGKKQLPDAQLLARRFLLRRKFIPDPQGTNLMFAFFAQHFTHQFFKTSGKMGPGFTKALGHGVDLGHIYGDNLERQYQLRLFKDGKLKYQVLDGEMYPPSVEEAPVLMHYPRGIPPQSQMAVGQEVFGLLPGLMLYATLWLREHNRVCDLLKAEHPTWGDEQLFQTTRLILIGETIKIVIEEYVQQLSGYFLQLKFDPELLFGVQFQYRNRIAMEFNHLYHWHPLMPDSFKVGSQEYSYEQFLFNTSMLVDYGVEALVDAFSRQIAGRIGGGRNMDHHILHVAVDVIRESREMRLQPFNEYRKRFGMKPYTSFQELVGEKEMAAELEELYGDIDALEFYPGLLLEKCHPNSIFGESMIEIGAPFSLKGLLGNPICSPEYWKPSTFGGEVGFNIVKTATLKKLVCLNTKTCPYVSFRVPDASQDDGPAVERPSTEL
Experimental: as §1

[2] = system: cotton pellet-induced granuloma; experiment: Cotton pellet-induced granuloma bioassay; format: in vivo, rat; details: for ED50: rat cotton pellet granuloma; for The anti-inflammatory activity ED50: rat, compound-impregnated cotton pellets implanted s.c., 7 days, dose response 4, 7, 10 and 15 μmol
Experimental: An animal model cotton pellet-induced granuloma bioassay was used to determine ED50 for the compounds (2)-(4). Adult male Sprague Dawley rats (120-140 g), were used in the cotton pellet-induced granuloma bioassays. The rats were acclimated one week prior to use and allowed unlimited access to standard rat chow and water. Prior to the start of the experiment, the animals were randomly divided into groups of six rats each. Cotton pellet (35±1 mg) cut from dental rolls were impregnated with 0.2 ml (containing 0.01 mmol) of a solution of each of compounds (2)-(4) in chloroform, and the solvent was allowed to evaporate. Each cotton pellet was subsequently injected with 0.2 ml of an aqueous solution of antibiotics (1 mg penicillin G and 1.3 mg dihydrostreptomycin/ml). Two pellets were implanted subcutaneously, one in each axilla of the rat, under mild general anesthesia. One group of animals received the standard reference pharmaceutical indomethacin and the antibiotics at the same level. Pellets containing only the antibiotics were similarly implanted in control rats. Seven days later, the animals were sacrificed and the two cotton pellets, with adhering granulomas, were removed, dried for 48 h at 60° C. and weighed. The increment in dry weight (difference between the initial and final weight) was taken as a measure of the dry weight of granuloma±SEM. The dry weight of granuloma and the percentage reduction in dry weight of granuloma relative to the respective control value were calculated for all rats. The ED50 values were determined through dose response curves using doses of 4, 7, 10 and 15 μmol for each compound.

H+/K+-ATPase = target: T2, H+/K+-ATPase (Sus scrofa, UniProt P19156); experiment: H+/K+-ATPase (proton pump) inhibition in membrane vesicles of stomach mucosa; format: biochemical; details: pig gastric membrane vesicles, 37° C.; pre-incubation pH (6.0 or 7.4) not given
T2 construct: Membrane vesicles containing H^+/K^+-ATPase were prepared from pig stomachs; from tissue; host or cells: pig gastric mucosa membrane vesicles
T2 sequence (P19156 2-1034 limits assumed): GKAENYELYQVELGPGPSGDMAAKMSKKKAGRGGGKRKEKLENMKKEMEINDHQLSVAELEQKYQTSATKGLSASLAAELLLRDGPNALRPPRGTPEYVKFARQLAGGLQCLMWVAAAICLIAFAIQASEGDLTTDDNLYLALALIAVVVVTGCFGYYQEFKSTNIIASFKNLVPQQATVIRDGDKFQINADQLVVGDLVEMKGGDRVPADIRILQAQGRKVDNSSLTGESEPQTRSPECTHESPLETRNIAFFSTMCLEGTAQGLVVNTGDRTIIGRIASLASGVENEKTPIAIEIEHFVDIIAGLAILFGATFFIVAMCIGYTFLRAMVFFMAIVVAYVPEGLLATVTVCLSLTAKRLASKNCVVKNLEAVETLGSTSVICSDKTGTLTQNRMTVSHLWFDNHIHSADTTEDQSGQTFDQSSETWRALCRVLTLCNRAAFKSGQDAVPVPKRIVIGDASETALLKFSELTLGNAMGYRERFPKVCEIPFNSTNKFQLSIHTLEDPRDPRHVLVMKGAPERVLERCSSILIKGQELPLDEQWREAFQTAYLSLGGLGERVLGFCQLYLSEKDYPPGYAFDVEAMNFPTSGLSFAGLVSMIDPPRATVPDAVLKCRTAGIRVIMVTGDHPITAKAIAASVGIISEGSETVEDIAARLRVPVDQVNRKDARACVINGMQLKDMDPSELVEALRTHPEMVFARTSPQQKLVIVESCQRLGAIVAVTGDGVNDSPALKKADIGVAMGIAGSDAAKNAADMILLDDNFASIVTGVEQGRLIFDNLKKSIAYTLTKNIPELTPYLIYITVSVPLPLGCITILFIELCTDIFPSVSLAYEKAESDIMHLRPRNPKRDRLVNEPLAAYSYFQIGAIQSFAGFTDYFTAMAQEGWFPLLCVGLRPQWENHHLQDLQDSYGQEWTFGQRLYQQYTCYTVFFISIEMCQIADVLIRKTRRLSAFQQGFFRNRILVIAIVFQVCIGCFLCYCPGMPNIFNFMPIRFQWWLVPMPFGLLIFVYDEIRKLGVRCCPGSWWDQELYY
T2 sequence (P18434 whole entry partner): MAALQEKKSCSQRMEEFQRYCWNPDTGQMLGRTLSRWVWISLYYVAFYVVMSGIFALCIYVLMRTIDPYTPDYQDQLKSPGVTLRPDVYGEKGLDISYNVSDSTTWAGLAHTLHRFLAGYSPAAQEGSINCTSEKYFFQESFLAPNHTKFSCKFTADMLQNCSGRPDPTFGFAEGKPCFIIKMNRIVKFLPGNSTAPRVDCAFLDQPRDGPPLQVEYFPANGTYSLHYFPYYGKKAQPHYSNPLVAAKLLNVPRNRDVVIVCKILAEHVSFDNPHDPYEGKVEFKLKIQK
Experimental: Membrane vesicles containing H^+/K^+-ATPase were prepared from pig stomachs obtained from a local slaughter house. Pigs were fasted overnight before slaughter. The gastric mucosa of four stomachs was rinsed with cold saturated NaCl solution for 3-5 min. The superficial cells, cell debris plus the mucus were wiped off with the edge of a plastic ruler and paper towels. The mucosa was scraped off. About 100 g of scrapings were divided into portions of 10 g and homogenized in 0.25 M sucrose with seven strokes in a Potter-Elvehjem Teflon-glass homogenizer. […] The pellet was discarded. The supernatant was centrifuged at 75,000 g for 1 h. The resulting microsomal pellet was homogenized in 30 ml 0.25 M sucrose. Aliquots of 15 ml were transferred to 100 ml centrifuge tubes and layered on top of step gradients, from the bottom comprising 25 ml 37% sucrose (w/v) and 45 ml 7.5% Ficoll (w/v) in 0.25 M sucrose. The tubes were centrifuged at 75,000 g for 1 h in a 6×100 ml ME angle rotor at 4° C. The gradient was then fractionated by pumping Fluoroinert 70 through narrow tubing in a fractionating cap down to the bottom of the tube. Fractions are collected from top through a center hole in the fractionating cap. The yield of vesicles in a typical preparation is about 50-75 mg protein. In order to maintain a stable vesicular structure for a long period of time, the vesicles were frozen at −70° C. under nitrogen, and could then be kept for several months without decrease of H^+/K^+-ATPase activity. The ATPase activity was measured at 37° C. as the release of inorganic phosphate (Pi) from ATP. […] Then, the medium of pH 6.0 is adjusted with HEPES/Tris buffer to pH 7.4. The enzyme reaction is started by addition of nigericin and Tris/ATP. The total reaction volume is 1 ml, containing 20 μg vesicular protein, 4 mM MgCl2, 10 mM KCl, 20 μM nigericin, 2 mM Tris-ATP, 10 mM HEPES and additionally 2 mM Pipes for the pre-incubation medium at pH 6.0. After […] at 37° C., the reaction is stopped by the addition of […] of 50% trichloroacetic acid. The denatured protein was spun down and the Pi content is determined according to Le Bel et al. (1978) and based on the reduction of a phosphomolybdate complex by p-methyl-aminophenol sulfate in a copper acetate buffer or according to Carter and Karl (1982) based on the reaction of phosphomolybdate with the basic dye malachite green. […] IC50 values of the test compound at different pH values were compared with IC50 values of the standard. Statistical differences (P<0.05) were calculated by Student's t-test.

Row | SMILES | IC50 (Human COX-2) | Approximate selectivity ratio COX-1/COX-2 (Human COX-2) | LD50 (Acute toxicity in mice) | Free acid (pyloric ligation ulcer) | Total acid (pyloric ligation ulcer) | Ulcer Index (pyloric ligation ulcer) | % Protection [1] | Increase in paw edema (ml) ± SEM [1] | Activity relative to indomethacin [1] | IC50 (Human COX-1) | ED50 [2] | The anti-inflammatory activity ED50 [2] | IC50 (H+/K+-ATPase) | The anti-inflammatory activity ED50 ([2]; listed as indomethacin)
1 | CC1(C(=O)O)CCC2(C)CCC3(C)C(=CC(=O)C4C5(C)C/C(=C\c6ccc(F)cc6)C(=O)C(C)(C)C5CCC43C)C2C1 (stereo not drawn) [Compound 2, 2-(4-fluorobenzylidene)-3,11-dioxo-18β-olean-12-en-30-oic acid] | 109 nM | 2733.94 | 3100 mg/kg | 0.09 mEq/L | 0.09 mEq/L | 1.16 | 98.40% | 0.0157 ± 0.0004 mL | 132.09 | 298 µM | 1.52 µmol | 1.52 ± 0.0019 µmol | 11.46 ± 0.009 µM | 
2 | Cn1nc2c(c1-c1ccc(F)cc1)CC1(C)C(CCC3(C)C1C(=O)C=C1C4CC(C)(C(=O)O)CCC4(C)CCC13C)C2(C)C (stereo not drawn) [Compound 3, 2-(4-fluorobenzylidene)-3,11-dioxo-18β-olean[3,2-c]-1′H-5′-(4-fluorophenyl)-N-methylpyrazoline-12-en-30-oic acid] | 91 nM | 3438.57 and 3428.57 | 3360 mg/kg | 0.08 mEq/L | 0.08 mEq/L | 1.12 | 98.49% | 0.0148 ± 0.0003 mL | 132.21 | 312 µM | 1.47 µmol | 1.47 ± 0.0021 µmol | 10.03 ± 0.0072 µM | 
3 | Cn1nc2c(c1-c1ccc(F)cc1)CC1(C)C(CCC3(C)C1C(=O)C=C1C4CC5(C)CC(OC5=O)C4(C)CCC13C)C2(C)C (stereo not drawn) [Compound 4, 2-(4-fluorobenzylidene)-3,11-dioxo-18β-olean[3,2-c]-1′H-5′-(4-fluorophenyl)-N-methylpyrazoline-12-en-30-oic acid (30→22β) lactone] | 87 nM | 3965.52 | 3460 mg/kg | 0.06 mEq/L | 0.06 mEq/L | 1.04 | 98.77% | 0.0121 ± 0.0002 mL | 132.58 | 345 µM | 1.35 µmol | 1.35 ± 0.0034 µmol | 9.21 ± 0.0076 µM | 
4 | COc1ccc2c(c1)c(CC(=O)O)c(C)n2C(=O)c1ccc(Cl)cc1 [Indomethacin, reference compound] |  |  |  |  |  |  |  | 0.25 ± 0.0005 mL |  |  |  | 9.568 ± 0.098 µmol |  | 9.568 µmol
5 | COc1ccc2[nH]c([S+]([O-])Cc3ncc(C)c(OC)c3C)nc2c1 (stereo not shown) [Omeprazole, reference compound] |  |  |  | 0.43 mEq/L | 0.33 mEq/L | 3.31 |  |  |  |  |  |  | 66.1 ± 1.11 µM | 
